Measurements: ChEMBL document CHEMBL1201862, “PubChem BioAssay data set” (2004)
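96-well plates; 48 h exposure; 5 concentrations. Endpoints by linear interpolation between flanking doses. Not reached: highest tested concentration assigned. At the GI50, growth is halved.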 Activity calls are given as the source filed them. Cut-off read from the data, not from the text of the source: active = GI50 up to about 1.1 µM and inactive = higher.

Columns and labels:
Experiment in all cases: DTP human tumour cell line panel, 48 h
SR = tested on: SR
T47D = tested on: T47D
SK-MEL-5 = tested on: SK-MEL-5
SK-MEL-28 = tested on: SK-MEL-28
HT-29 = tested on: HT-29
SF-539 = tested on: SF-539
Hs-578T = tested on: Hs-578T
HCT-15 = tested on: HCT-15
UACC-62 = tested on: UACC-62
SF-268 = tested on: SF-268
SN12C = tested on: SN12C
SNB-75 = tested on: SNB-75
IGROV-1 = tested on: IGROV-1
M14 = tested on: M14
U-251 = tested on: U-251
LOX IMVI = tested on: LOX IMVI
SK-OV-3 = tested on: SK-OV-3
MCF7 = tested on: MCF7
CCRF-CEM = tested on: CCRF-CEM
SNB-19 = tested on: SNB-19
UACC-257 = tested on: UACC-257
DU-145 = tested on: DU-145
786-0 = tested on: 786-0
OVCAR-8 = tested on: OVCAR-8
MDA-N = tested on: MDA-N
EKVX = tested on: EKVX
A498 = tested on: A498
SW-620 = tested on: SW-620
SF-295 = tested on: SF-295
ACHN = tested on: ACHN
OVCAR-3 = tested on: OVCAR-3
HOP-92 = tested on: HOP-92
NCI-H460 = tested on: NCI-H460
BT-549 = tested on: BT-549
HOP-62 = tested on: HOP-62
HCT-116 = tested on: HCT-116
NCI-H23 = tested on: NCI-H23
OVCAR-4 = tested on: OVCAR-4
RPMI-8226 = tested on: RPMI-8226
MDA-MB-231 = tested on: MDA-MB-231
A549 = tested on: A549
MOLT-4 = tested on: MOLT-4
OVCAR-5 = tested on: OVCAR-5
SK-MEL-2 = tested on: SK-MEL-2
NCI-H522 = tested on: NCI-H522
NCI-H226 = tested on: NCI-H226
HL-60 = tested on: HL-60
PC-3 = tested on: PC-3
RXF 393 = tested on: RXF 393
MDA-MB-435 = tested on: MDA-MB-435
HCC 2998 = tested on: HCC 2998
CAKI-1 = tested on: CAKI-1
KM12 = tested on: KM12
K562 = tested on: K562
TK-10 = tested on: TK-10
COLO 205 = tested on: COLO 205
NCI/ADR-RES = tested on: NCI/ADR-RES
Malme-3M = tested on: Malme-3M
UO-31 = tested on: UO-31

**Q.** For `CCOC(=O)c1sc(=S)n(-c2ccc(Cl)cc2)c1-n1cc(-c2ccccc2)c(C#N)c1N`, which GI50 (SR) is on record?
**A.** 17.4 µM (inactive)

**Q.** What about the GI50 (T47D) of the same molecule?
**A.** 13.1 µM (inactive)

**Q.** What about the GI50 (SK-MEL-5) of the same molecule?
**A.** 16.3 µM (inactive)

**Q.** What about the GI50 (SK-MEL-28) of the same molecule?
**A.** 38.2 µM (inactive)

**Q.** What about the GI50 (HT-29) of the same molecule?
**A.** 51.6 µM (inactive)

**Q.** And the GI50 (SF-539)?
**A.** 19.8 µM (inactive)

**Q.** And the GI50 (Hs-578T)?
**A.** 4.19 µM (inactive)

**Q.** And the GI50 (HCT-15)?
**A.** 42.8 µM

**Q.** And the GI50 (UACC-62)?
**A.** 24.8 µM (inactive)

**Q.** And the GI50 (SF-268)?
**A.** 2.72 µM (inactive)

**Q.** And the GI50 (SN12C)?
**A.** 18.6 µM (inactive)

**Q.** And the GI50 (SNB-75)?
**A.** 16 µM (inactive)

**Q.** And the GI50 (IGROV-1)?
**A.** 15.3 µM (inactive)

**Q.** And the GI50 (M14)?
**A.** 53.1 µM (inactive)

**Q.** And the GI50 (U-251)?
**A.** 15.2 µM (inactive)

**Q.** What about the GI50 (LOX IMVI) of the same molecule?
**A.** 43.5 µM (inactive)

**Q.** And the GI50 (SK-OV-3)?
**A.** 16.9 µM (inactive)

**Q.** What about the GI50 (MCF7) of the same molecule?
**A.** 15.7 µM (inactive)

**Q.** What about the GI50 (CCRF-CEM) of the same molecule?
**A.** 31.8 µM (inactive)

**Q.** What about the GI50 (SNB-19) of the same molecule?
**A.** 19 µM (inactive)

**Q.** And the GI50 (UACC-257)?
**A.** 41.4 µM (inactive)

**Q.** What about the GI50 (DU-145) of the same molecule?
**A.** 6.81 µM (inactive)

**Q.** What about the GI50 (786-0) of the same molecule?
**A.** 11 µM (inactive)

**Q.** And the GI50 (OVCAR-8)?
**A.** 12.1 µM (inactive)

**Q.** What about the GI50 (MDA-N) of the same molecule?
**A.** 50.8 µM (inactive)

**Q.** And the GI50 (EKVX)?
**A.** 22.5 µM (inactive)

**Q.** What about the GI50 (A498) of the same molecule?
**A.** 23.1 µM (inactive)

**Q.** And the GI50 (SW-620)?
**A.** 53 µM (inactive)

**Q.** What about the GI50 (SF-295) of the same molecule?
**A.** 13.3 µM (inactive)

**Q.** What about the GI50 (ACHN) of the same molecule?
**A.** 16.7 µM (inactive)

**Q.** What about the GI50 (OVCAR-3) of the same molecule?
**A.** 13.7 µM (inactive)

**Q.** And the GI50 (HOP-92)?
**A.** 15.4 µM (inactive)

**Q.** And the GI50 (NCI-H460)?
**A.** 22.3 µM (inactive)

**Q.** And the GI50 (BT-549)?
**A.** 23.7 µM (inactive)

**Q.** And the GI50 (HOP-62)?
**A.** 3.13 µM (inactive)

**Q.** What about the GI50 (HCT-116) of the same molecule?
**A.** 26.1 µM (inactive)

**Q.** And the GI50 (NCI-H23)?
**A.** 21.8 µM (inactive)

**Q.** And the GI50 (OVCAR-4)?
**A.** 8.85 µM (inactive)

**Q.** What about the GI50 (RPMI-8226) of the same molecule?
**A.** 26.5 µM (inactive)

**Q.** And the GI50 (MDA-MB-231)?
**A.** 17.6 µM (inactive)

**Q.** What about the GI50 (A549) of the same molecule?
**A.** 18.8 µM (inactive)

**Q.** And the GI50 (MOLT-4)?
**A.** > 100 µM (inactive)

**Q.** And the GI50 (OVCAR-5)?
**A.** > 100 µM (inactive)

**Q.** And the GI50 (SK-MEL-2)?
**A.** 20.4 µM (inactive)

**Q.** And the GI50 (NCI-H522)?
**A.** 3.32 µM (inactive)

**Q.** What about the GI50 (NCI-H226) of the same molecule?
**A.** 13.6 µM (inactive)

**Q.** And the GI50 (HL-60)?
**A.** 34.2 µM (inactive)

**Q.** What about the GI50 (PC-3) of the same molecule?
**A.** 11.8 µM (inactive)

**Q.** What about the GI50 (RXF 393) of the same molecule?
**A.** 15.4 µM (inactive)

**Q.** And the GI50 (MDA-MB-435)?
**A.** 41 µM (inactive)

**Q.** And the GI50 (HCC 2998)?
**A.** 34.2 µM (inactive)

**Q.** And the GI50 (CAKI-1)?
**A.** > 100 µM (inactive)

**Q.** And the GI50 (KM12)?
**A.** > 100 µM (inactive)

**Q.** And the GI50 (K562)?
**A.** 44.4 µM (inactive)

**Q.** And the GI50 (TK-10)?
**A.** 11.3 µM (inactive)

**Q.** What about the GI50 (COLO 205) of the same molecule?
**A.** > 100 µM (inactive)

**Q.** What about the GI50 (NCI/ADR-RES) of the same molecule?
**A.** 16.9 µM (inactive)

**Q.** Which results are given for `O=C(O)c1ccccc1CC1Cc2ccccc2C1`?
**A.** GI50 (SR): > 100 µM (inactive); GI50 (T47D): > 100 µM (inactive); GI50 (SK-MEL-5): > 100 µM (inactive); GI50 (SK-MEL-28): > 100 µM (inactive); GI50 (HT-29): > 100 µM (inactive); GI50 (SF-539): > 100 µM (inactive); GI50 (Hs-578T): > 100 µM (inactive); GI50 (HCT-15): > 100 µM; GI50 (UACC-62): > 100 µM (inactive); GI50 (SF-268): > 100 µM (inactive); GI50 (SN12C): > 100 µM (inactive); GI50 (SNB-75): > 100 µM (inactive); GI50 (IGROV-1): > 100 µM (inactive); GI50 (M14): > 100 µM (inactive); GI50 (U-251): > 100 µM (inactive); GI50 (LOX IMVI): > 100 µM (inactive); GI50 (SK-OV-3): > 100 µM (inactive); GI50 (MCF7): > 100 µM (inactive); GI50 (CCRF-CEM): > 100 µM (inactive); GI50 (SNB-19): > 100 µM (inactive); GI50 (UACC-257): > 100 µM (inactive); GI50 (DU-145): > 100 µM (inactive); GI50 (786-0): > 100 µM (inactive); GI50 (OVCAR-8): > 100 µM (inactive); GI50 (MDA-N): > 100 µM (inactive); GI50 (EKVX): > 100 µM (inactive); GI50 (SW-620): > 100 µM (inactive); GI50 (SF-295): > 100 µM (inactive); GI50 (Malme-3M): > 100 µM (inactive); GI50 (ACHN): > 100 µM (inactive); GI50 (OVCAR-3): > 100 µM (inactive); GI50 (HOP-92): > 100 µM (inactive); GI50 (NCI-H460): > 100 µM (inactive); GI50 (BT-549): > 100 µM (inactive); GI50 (HOP-62): > 100 µM (inactive); GI50 (HCT-116): > 100 µM (inactive); GI50 (NCI-H23): > 100 µM (inactive); GI50 (OVCAR-4): > 100 µM (inactive); GI50 (RPMI-8226): > 100 µM (inactive); GI50 (MDA-MB-231): > 100 µM (inactive); GI50 (A549): > 100 µM (inactive); GI50 (MOLT-4): > 100 µM (inactive); GI50 (OVCAR-5): > 100 µM (inactive); GI50 (SK-MEL-2): > 100 µM (inactive); GI50 (NCI-H522): > 100 µM (inactive); GI50 (NCI-H226): > 100 µM (inactive); GI50 (HL-60): > 100 µM (inactive); GI50 (PC-3): > 100 µM (inactive); GI50 (RXF 393): > 100 µM (inactive); GI50 (MDA-MB-435): > 100 µM (inactive); GI50 (HCC 2998): > 100 µM (inactive); GI50 (CAKI-1): > 100 µM (inactive); GI50 (KM12): > 100 µM (inactive); GI50 (K562): > 100 µM (inactive); GI50 (TK-10): > 100 µM (inactive); GI50 (UO-31): > 100 µM (inactive); GI50 (COLO 205): > 100 µM (inactive); GI50 (NCI/ADR-RES): > 100 µM (inactive)
